In ChEMBL document CHEMBL5550205, “Discovery of a NCOA4 Degrader for Labile Iron-Dependent Ferroptosis Inhibition” (J Med Chem, 2024):

Test system: AML12
Experiment: Protection against CCl4-induced ferroptosis in mouse AML12 cells assessed as cell viability
Type: functional, cell-based

With `CC(=O)N(O)CCCCCNC(=O)CCC(=O)N(O)CCCCCNC(=O)CCC(=O)N(O)CCCCCN` [DEFEROXAMINE] the EC50 was 8.83 µM.
